We go through 16 molecules from PubChem BioAssay AID330 (DTP/NCI, 2004).

The test system of this experiment is P388 leukemia ip, CD2F1 mice, survival T/C. In words: NCI In Vivo Anticancer Drug Screen. Data for tumor model P388 Leukemia (intraperitoneal) in CD2F1 (CDF1) mice. The settings on record: endpoint: median survival time, higher = longer survival. The procedure, abridged: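 Mice carrying the transplanted tumor received test compound or vehicle. Survival was recorded in each group, and the value is the treated-group measurement divided by that of the vehicle-treated control group.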

[1] abbreviates: dose: 12.5 mg/kg/injection, schedule: Q01DX009 (ip), vehicle: saline with Tween-80.
Setting [2] is: dose: 25.0 mg/kg/injection, schedule: Q01DX009 (ip), vehicle: saline with Tween-80.
Setting [3] is: dose: 50.0 mg/kg/injection, schedule: Q01DX009 (ip), vehicle: saline with Tween-80.
Where [4] appears, read: dose: 100.0 mg/kg/injection, schedule: Q01DX001 (ip), vehicle: Klucel (hydroxypropylcellulose) (HPC).
[5] abbreviates: dose: 100.0 mg/kg/injection, schedule: Q01DX009 (ip), vehicle: saline with Tween-80.

Several values for one entry are separate records, joined by “and”; a condition that tells them apart may be missing. Equal entries are not always repeated. Toxic doses and inconclusive results are not listed.

As for `CC1CN1CC(O)C(O)CN1CC1C` (stereo not drawn), the T/C (dose: 0.01 mg/kg/injection, schedule: Q04DX003 (ip), vehicle: saline) was 109 % of control; the T/C (dose: 0.02 mg/kg/injection, schedule: Q04DX003 (ip), vehicle: saline) is 104 % of control; the T/C (dose: 0.15 mg/kg/injection, schedule: Q04DX003 (ip), vehicle: saline) is 160 % of control; the T/C (dose: 0.3 mg/kg/injection, schedule: Q04DX003 (ip), vehicle: saline) was 170 % of control; the T/C (dose: 0.5 mg/kg/injection, schedule: Q04DX003 (ip), vehicle: saline) is 160 % of control; the T/C (dose: 0.6 mg/kg/injection, schedule: Q04DX003 (ip), vehicle: saline) was 170 % of control. The T/C (dose: 0.62 mg/kg/injection, schedule: Q04DX003 (ip), vehicle: saline) is 154 % of control; the T/C (dose: 1.0 mg/kg/injection, schedule: Q04DX003 (ip), vehicle: saline) was 185 % of control; the T/C (dose: 1.25 mg/kg/injection, schedule: Q01DX009 (ip), vehicle: saline with Tween-80) was 272 % of control; the T/C (dose: 1.25 mg/kg/injection, schedule: Q04DX003 (ip), vehicle: saline) was 163 % of control; the T/C (dose: 2.0 mg/kg/injection, schedule: Q04DX003 (ip), vehicle: saline) was 240 % of control; the T/C (dose: 2.5 mg/kg/injection, schedule: Q01DX009 (ip), vehicle: saline with Tween-80) is 95 % of control. Moreover, the T/C (dose: 2.5 mg/kg/injection, schedule: Q01DX009 (ip), vehicle: saline) is 222 % of control; the T/C (dose: 2.5 mg/kg/injection, schedule: Q04DX003 (ip), vehicle: saline) was 222 % of control; the T/C (dose: 3.0 mg/kg/injection, schedule: Q04DX003 (ip), vehicle: saline) is 172 % of control; the T/C (dose: 3.3 mg/kg/injection, schedule: Q04DX003 (ip), vehicle: saline) was 212 % of control; the T/C (dose: 5.0 mg/kg/injection, schedule: Q01DX009 (ip), vehicle: saline) is 122 % of control; the T/C (dose: 5.0 mg/kg/injection, schedule: Q04DX003 (ip), vehicle: saline) was 231 % of control and 183 % of control and 230 % of control. Also, the T/C was 268 % of control (dose: 6.0 mg/kg/injection, schedule: Q04DX003 (ip), vehicle: saline); 272 % of control (dose: 7.5 mg/kg/injection, schedule: Q04DX003 (ip), vehicle: saline); 268 % of control (dose: 10.0 mg/kg/injection, schedule: Q04DX003 (ip), vehicle: saline); 100 % of control (dose: 63.0 micrograms/kg/injection, schedule: Q04DX003 (ip), vehicle: saline); 100 % of control (dose: 125.0 micrograms/kg/injection, schedule: Q04DX003 (ip), vehicle: saline); 104 % of control (dose: 250.0 micrograms/kg/injection, schedule: Q04DX003 (ip), vehicle: saline).

Take `COc1cc2c(cc1OC)C1CC(OC(=O)c3ccccc3)(c3nccc4cc(OC)c(OC)cc34)CCN1CC2` (stereo not drawn): the T/C runs as follows: under setting [1], 97 % of control; under setting [2], 93 % of control; under setting [3], 95 % of control and 97 % of control.

Regarding `CC(=O)OC1CCC2(C)C(=CCC3C2CCC2(C)C(OC(C)=O)/C(=C/C(=O)O)CC32)C1` (stereo not drawn), the T/C was 94 % of control (dose: 25.0 mg/kg/injection, schedule: Q01DX009 (ip), vehicle: Klucel (hydroxypropylcellulose) (HPC)); 97 % of control (dose: 50.0 mg/kg/injection, schedule: Q01DX009 (ip), vehicle: Klucel (hydroxypropylcellulose) (HPC)); 97 % of control (dose: 100.0 mg/kg/injection, schedule: Q01DX009 (ip), vehicle: Klucel (hydroxypropylcellulose) (HPC)); 90 % of control (dose: 200.0 mg/kg/injection, schedule: Q01DX009 (ip), vehicle: Klucel (hydroxypropylcellulose) (HPC)).

`C=C1CC(OC(=O)C(C)C)C2C(=C)C(=O)O[C@@H]2C2C(=C)[C@@H](O)CC12` (stereo partly drawn): the T/C (dose: 20.0 mg/kg/injection, schedule: Q01DX005 (ip), vehicle: saline with Tween-80) was 102 % of control; the T/C (dose: 40.0 mg/kg/injection, schedule: Q01DX005 (ip), vehicle: saline with Tween-80) is 106 % of control; the T/C (dose: 80.0 mg/kg/injection, schedule: Q01DX005 (ip), vehicle: saline with Tween-80) was 115 % of control.

On to `COCCC(=NC(C)(C)C)Nc1ccccc1Cl`, for which the T/C (dose: 50.0 mg/kg/injection, schedule: Q01DX009 (ip), vehicle: saline) was 114 % of control; the T/C (dose: 100.0 mg/kg/injection, schedule: Q01DX009 (ip), vehicle: saline) was 113 % of control; the T/C (dose: 200.0 mg/kg/injection, schedule: Q01DX009 (ip), vehicle: saline) was 102 % of control.

For `Cc1ncc(CCl)n1Cc1ccccc1`, the T/C (dose: 15.0 mg/kg/injection, schedule: Q01DX005 (ip), vehicle: saline) was 105 % of control; the T/C (dose: 30.0 mg/kg/injection, schedule: Q01DX005 (ip), vehicle: saline) is 106 % of control; the T/C (dose: 60.0 mg/kg/injection, schedule: Q01DX005 (ip), vehicle: saline) was 99 % of control.

Take `[O-]c1nn(-c2ccccc2)n[n+]1-c1ccccc1`: the T/C under setting [4] is 97 % of control; the T/C (dose: 200.0 mg/kg/injection, schedule: Q01DX001 (ip), vehicle: Klucel (hydroxypropylcellulose) (HPC)) was 100 % of control; the T/C (dose: 400.0 mg/kg/injection, schedule: Q01DX001 (ip), vehicle: Klucel (hydroxypropylcellulose) (HPC)) is 94 % of control.

As to `CCN(CC)c1nc(Cl)nc(Nc2ccc3cc(-c4ccccc4)c(=O)oc3c2)n1`, the T/C by setting is: (dose: 50.0 mg/kg/injection, schedule: Q01DX005 (ip), vehicle: Klucel (hydroxypropylcellulose) (HPC)) 98 % of control; (dose: 100.0 mg/kg/injection, schedule: Q01DX005 (ip), vehicle: Klucel (hydroxypropylcellulose) (HPC)) 95 % of control; (dose: 200.0 mg/kg/injection, schedule: Q01DX005 (ip), vehicle: Klucel (hydroxypropylcellulose) (HPC)) 104 % of control.

Take `CCOC(c1ccc(OC)cc1)c1cc(C(C)(C)C)cc(C(C)(C)C)c1O` (stereo not drawn): the T/C reads like this: (dose: 50.0 mg/kg/injection, schedule: Q01DX005 (ip), vehicle: distilled water + alcohol) 103 % of control; (dose: 100.0 mg/kg/injection, schedule: Q01DX005 (ip), vehicle: distilled water + alcohol) 105 % of control; (dose: 200.0 mg/kg/injection, schedule: Q01DX005 (ip), vehicle: distilled water + alcohol) 107 % of control.

In the case of `C[N+](C)(C)CCCCC[N+](C)(C)C`, the T/C was 110 % of control (dose: 6.25 mg/kg/injection, schedule: Q01DX009 (ip), vehicle: saline); 110 % of control (dose: 12.5 mg/kg/injection, schedule: Q01DX009 (ip), vehicle: saline); 100 % of control under setting [2]; 110 % of control (dose: 25.0 mg/kg/injection, schedule: Q01DX009 (ip), vehicle: saline); 104 % of control under setting [3]; 100 % of control under setting [5].

Consider `Oc1c(CN2CCOCC2)cc(CN2CCOCC2)cc1CN1CCOCC1`, for which the T/C was 94 % of control under setting [3]; 103 % of control under setting [5]; 100 % of control (dose: 200.0 mg/kg/injection, schedule: Q01DX009 (ip), vehicle: saline with Tween-80); 100 % of control (dose: 400.0 mg/kg/injection, schedule: Q01DX009 (ip), vehicle: saline with Tween-80).

For the molecule `COc1ccc(C2(O)OCC(COc3cc(C)c(Cl)c(C)c3)O2)cc1OC` (stereo not drawn), the T/C runs as follows: (dose: 60.0 mg/kg/injection, schedule: Q01DX005 (ip), vehicle: DMSO) 114 % of control; (dose: 120.0 mg/kg/injection, schedule: Q01DX005 (ip), vehicle: DMSO) 123 % of control; (dose: 240.0 mg/kg/injection, schedule: Q01DX005 (ip), vehicle: DMSO) 109 % of control.

On to `CCCCCC(Cn1ccnc1)c1c(Cl)cccc1Cl` (stereo not drawn), for which the T/C is 103 % of control (dose: 25.0 mg/kg/injection, schedule: Q04DX003 (ip), vehicle: saline); 100 % of control (dose: 50.0 mg/kg/injection, schedule: Q04DX003 (ip), vehicle: saline); 91 % of control (dose: 100.0 mg/kg/injection, schedule: Q04DX003 (ip), vehicle: saline).

For `O=[N+]([O-])c1cccc(N/N=C\c2cccc3c(/C=N/Nc4cccc([N+](=O)[O-])c4)c(Cl)n(-c4ccccc4)c23)c1`, under setting [4], the T/C was 86 % of control.

For `c1ccc2cc3c4c(ccc3cc2c1)CCCCCC4`, the T/C under setting [1] was 86 % of control, the T/C under setting [2] was 112 % of control and the T/C under setting [3] is 105 % of control.

With `CN=NNCc1ccccc1`, the T/C by setting is: (dose: 1.56 mg/kg/injection, schedule: Q01DX005 (ip), vehicle: saline) 100 % of control and 102 % of control; (dose: 3.12 mg/kg/injection, schedule: Q01DX005 (ip), vehicle: saline) 98 % of control and 103 % of control; (dose: 6.25 mg/kg/injection, schedule: Q01DX005 (ip), vehicle: saline) 102 % of control and 105 % of control; (dose: 12.5 mg/kg/injection, schedule: Q01DX005 (ip), vehicle: saline) 93 % of control.
